For 3 compounds, inhibition zone (IZ), MIC and zone of inhibition results are on record in ChEMBL document CHEMBL5030544, “Synthesis, anti-microbial, toxicity and molecular docking studies of N-nitroso-N-phenylhydroxylamine (cupferron) and its derivatives” (Bioorg Med Chem Lett, 2021).

Common to all, as to type: functional
Assay [1] relates to Corynebacterium. Description: Antibacterial activity against Corynebacterium ATCC 49368 assessed as zone of inhibition at 15 mg/ml. Conditions: for zone of inhibition at 15000 µg/mL: read-out: IZ.
For assay [2], the system named is Staphylococcus aureus. Description: Antibacterial activity against Staphylococcus aureus […] assessed as zone of inhibition at 15 mg/ml. To be noted: for zone of inhibition at 15000 µg/mL: read-out: IZ.
Assay [3] relates to Staphylococcus aureus. Description: Antibacterial activity against Staphylococcus aureus […] assessed as bacterial growth inhibition.
Assay [4] has as its system Staphylococcus aureus. Put plainly: Antibacterial activity against Staphylococcus aureus […] assessed as zone of inhibition at 5 mg/ml. To be noted: for zone of inhibition at 5000 µg/mL: read-out: IZ.
Assay [5] concerns Streptococcus pyogenes. Description: Antibacterial activity against Streptococcus pyogenes ATCC 19615 assessed as zone of inhibition at 15 mg/ml. To be noted: for zone of inhibition at 15000 µg/mL: read-out: IZ.
For assay [6], the system named is Salmonella typhi. Put plainly: Antibacterial activity against Salmonella typhi ATCC 6539 assessed as zone of inhibition at 15 mg/kg.
Assay [7] has as its system Streptococcus pyogenes. Description: Antibacterial activity against Streptococcus pyogenes ATCC 19615 assessed as zone of inhibition at 5 mg/ml. Conditions: for zone of inhibition at 5000 µg/mL: read-out: IZ.
Assay [8] relates to Streptococcus pyogenes. Put plainly: Antibacterial activity against Streptococcus pyogenes ATCC 19615 assessed as zone of inhibition at 10 mg/ml. Conditions: for zone of inhibition at 10000 µg/mL: read-out: IZ.
The subject of assay [9] is Staphylococcus aureus. Description: Antibacterial activity against Staphylococcus aureus […] assessed as zone of inhibition at 10 mg/ml. Conditions: for zone of inhibition at 10000 µg/mL: read-out: IZ.
The test system of assay [10] is Bacillus subtilis. Description: Antibacterial activity against Bacillus subtilis ATCC 23857 assessed as zone of inhibition at 10 mg/ml. To be noted: for zone of inhibition at 10000 µg/mL: read-out: IZ.
Assay [11] deals with Salmonella typhi. Description: Antibacterial activity against Salmonella typhi ATCC 6539 assessed as zone of inhibition at 10 mg/kg.
In assay [12] the test system is Salmonella typhi. Description: Antibacterial activity against Salmonella typhi ATCC 6539 assessed as bacterial growth inhibition. To be noted: Salmonella enterica subsp. enterica serovar Typhi.
The test system of assay [13] is Bacillus subtilis. Put plainly: Antibacterial activity against Bacillus subtilis ATCC 23857 assessed as zone of inhibition at 15 mg/ml. To be noted: for zone of inhibition at 15000 µg/mL: read-out: IZ.
Assay [14] has as its system Corynebacterium. Put plainly: Antibacterial activity against Corynebacterium ATCC 49368 assessed as zone of inhibition at 10 mg/ml. To be noted: for zone of inhibition at 10000 µg/mL: read-out: IZ.
Assay [15] relates to Bacillus subtilis. Put plainly: Antibacterial activity against Bacillus subtilis ATCC 23857 assessed as zone of inhibition at 5 mg/ml.
Assay [16] concerns Corynebacterium. Put plainly: Antibacterial activity against Corynebacterium ATCC 49368 assessed as bacterial growth inhibition.
The subject of assay [17] is Bacillus subtilis. Description: Antibacterial activity against Bacillus subtilis ATCC 23857 assessed as bacterial growth inhibition.
The test system of assay [18] is Klebsiella pneumoniae. Description: Antibacterial activity against Klebsiella pneumoniae ATCC 13883 assessed as zone of inhibition at 15 mg/kg. Conditions: read-out: IZ.
Assay [19] has as its system Escherichia coli. Description: Antibacterial activity against Escherichia coli ATCC 25922 assessed as zone of inhibition at 15 mg/ml. To be noted: read-out: IZ.
The test system of assay [20] is Klebsiella pneumoniae. Description: Antibacterial activity against Klebsiella pneumoniae ATCC 13883 assessed as zone of inhibition at 10 mg/kg. Conditions: read-out: IZ.
For assay [21], the system named is Corynebacterium. Put plainly: Antibacterial activity against Corynebacterium ATCC 49368 assessed as zone of inhibition at 5 mg/ml. Conditions: read-out: IZ.
Assay [22] relates to Escherichia coli. Put plainly: Antibacterial activity against Escherichia coli ATCC 25922 assessed as zone of inhibition at 10 mg/ml. To be noted: read-out: IZ.
The test system of assay [23] is Pseudomonas aeruginosa. Description: Antibacterial activity against Pseudomonas aeruginosa ATCC 27853 assessed as zone of inhibition at 5 mg/ml. Conditions: read-out: IZ.
Assay [24] has as its system Pseudomonas aeruginosa. Description: Antibacterial activity against Pseudomonas aeruginosa ATCC 27853 assessed as zone of inhibition at 15 mg/ml. To be noted: read-out: IZ.
Assay [25] deals with Pseudomonas aeruginosa. Put plainly: Antibacterial activity against Pseudomonas aeruginosa ATCC 27853 assessed as zone of inhibition at 10 mg/ml. Conditions: read-out: IZ.
The test system of assay [26] is Escherichia coli. Description: Antibacterial activity against Escherichia coli ATCC 25922 assessed as bacterial growth inhibition.
Assay [27] relates to Streptococcus pyogenes. Put plainly: Antibacterial activity against Streptococcus pyogenes ATCC 19615 assessed as bacterial growth inhibition.
The subject of assay [28] is Klebsiella pneumoniae. Put plainly: Antibacterial activity against Klebsiella pneumoniae ATCC 13883 assessed as bacterial growth inhibition.
Setting [29] is: Salmonella enterica subsp. enterica serovar Typhi.
The mark [30] stands for this setting: Salmonella enterica, read-out: IZ.

What is called MIC is the lowest concentration found to suppress growth.

Converted amounts (≈) assume the structure as drawn.

Take GENTAMICIN: the inhibition zone (IZ) with Corynebacterium [1] was 23 mm; with Staphylococcus aureus [2], 22 mm; in the assay with Staphylococcus aureus [4] it was 10 mm; in the assay with Streptococcus pyogenes [5] it was 25 mm; with Salmonella typhi [6] (setting [29]), 26 mm; with Streptococcus pyogenes [7] it was 3 mm. Further, the inhibition zone (IZ) with Streptococcus pyogenes [8] was found to be 13 mm; in the assay with Staphylococcus aureus [9], 11 mm; with Bacillus subtilis [10], 10 mm; in the assay with Salmonella typhi [11] (setting [29]), 12 mm; with Bacillus subtilis [13], 24 mm; in the assay with Corynebacterium [14], 10 mm. Besides, the inhibition zone (IZ) with Bacillus subtilis [15] stood at 5 mm. For the same compound, the MIC with Staphylococcus aureus [3] was determined as 8 µg/mL; in the assay with Salmonella typhi [12], 16 µg/mL.
In the case of `O=C(O)c1cn(C2CC2)c2cc(N3CCNCC3)c(F)cc2c1=O` [CIPROFLOXACIN], the zone of inhibition at 15000 µg/mL in the assay with Corynebacterium [1] amounted to 19 mm; in the assay on Staphylococcus aureus [2] it was 22 mm; with Streptococcus pyogenes [5] it was 26 mm; in the assay with Escherichia coli [19] it was 10 mm; with Pseudomonas aeruginosa [24], 25 mm; with Bacillus subtilis [13], 27 mm. In addition, the MIC was 4 µg/mL (≈ 12.1 µM) in the assay with Corynebacterium [16] and 2 µg/mL (≈ 6.04 µM) in the assay on Bacillus subtilis [17]. Moreover, the zone of inhibition at 5000 µg/mL was 7 mm in the assay with Staphylococcus aureus [4]; 10 mm in the assay on Corynebacterium [21]; 10 mm in the assay on Streptococcus pyogenes [7]; 15 mm with Pseudomonas aeruginosa [23]; 12 mm in the assay with Bacillus subtilis [15] (read-out: IZ). In addition, the figures for the zone of inhibition at 15 mg/kg in the assay on Klebsiella pneumoniae [18] and in the assay on Salmonella typhi [6] (setting [30]) were 25 mm and 32 mm, respectively. The zone of inhibition at 10 mg/kg is 12 mm in the assay on Klebsiella pneumoniae [20] and 15 mm in the assay on Salmonella typhi [11] (setting [30]). Moreover, the zone of inhibition at 10000 µg/mL in the assay with Escherichia coli [22] was 11 mm; with Streptococcus pyogenes [8] it was 13 mm; with Staphylococcus aureus [9], 10 mm; in the assay on Bacillus subtilis [10] it was 15 mm; in the assay on Pseudomonas aeruginosa [25], 18 mm; in the assay with Corynebacterium [14], 16 mm.
On to `CN[C@@H]1[C@H](O[C@H]2[C@H](O[C@H]3[C@H](O)[C@@H](O)[C@H](N=C(N)N)[C@@H](O)[C@@H]3N=C(N)N)O[C@@H](C)[C@]2(O)C=O)O[C@@H](CO)[C@H](O)[C@H]1O` [STREPTOMYCIN], for which the zone of inhibition at 15000 µg/mL with Corynebacterium [1] was found to be 20 mm; with Staphylococcus aureus [2], 8 mm; in the assay on Streptococcus pyogenes [5], 10 mm; with Pseudomonas aeruginosa [24] it was 15 mm; with Bacillus subtilis [13] it was 20 mm. The MIC with Escherichia coli [26] was found to be 16 µg/mL (≈ 27.5 µM); in the assay on Streptococcus pyogenes [27], 8 µg/mL (≈ 13.8 µM); in the assay with Klebsiella pneumoniae [28], 16 µg/mL (≈ 27.5 µM). Besides, the zone of inhibition at 5000 µg/mL in the assay on Staphylococcus aureus [4] and in the assay on Streptococcus pyogenes [7] was 2 mm throughout. The zone of inhibition at 15 mg/kg in the assay with Klebsiella pneumoniae [18] is 14 mm. Moreover, the zone of inhibition at 10000 µg/mL stood at 3 mm in the assay on Streptococcus pyogenes [8]; 4 mm in the assay on Staphylococcus aureus [9]; 10 mm in the assay with Bacillus subtilis [10]; 11 mm in the assay with Pseudomonas aeruginosa [25]; 8 mm in the assay on Corynebacterium [14].
